# Test results published in patent publication US9186416B2, “Immunoconjugates, compositions for making them, and methods of making and use” (priority 2011, dated 2015).
# Tests used:
# 786-O cell lysate = assay: Dephosphorylation by 786-O cell lysate; assay type: in vitro ADME, human; conditions: 100 μM compound, 786-O lysate 2 mg/mL protein, pH 5.5, 37° C.
# Method: 786-O cells, as frozen pellets with an estimated quantity of 10^7 cells per vortexing tube, were resuspended and homogenized in 500 μL of lysis buffer (25 mM NaOAc, 1 mM EDTA, 0.25 M sucrose, 0.1% Triton X-100, pH 5.5). Homogenization involved vortex mixing for 30 sec, followed by a one min cooling on ice. For each tube, three vortex and cooling cycles were performed. Cell samples were then further mixed by shearing in a 19 gauge needle three times.
# Following homogenization, the DNA of the cell lysate was hydrolyzed using BENZONASE™ DNAse. Samples were first brought up in 1 mM MgSO4. After mixing, 2 μL of BENZONASE™ DNAse (neat) were added to each vial of lysate (4 μL/mL, v/v, final concentration). Samples were then stored at RT for 15 min and then cooled on ice. For this step, successful DNAse activity was evidenced by appearance of flocculent precipitate. Samples were then spun at maximum speed in a microcentrifuge for 5 min to remove cellular debris. Supernatant was frozen at −70° C. for later use. Protein concentration of the lysate was determined using Pierce BCA Protein Determination methodology (Thermo Scientific).
# A 2000 μM stock solution of the compound of formula (Ia) was prepared. Lysate was diluted to 2.1 mg/mL in lysate buffer. For reaction, 5 μL of the compound (Ia) stock was added to 95 μL of lysate. […]
# H226 cell lysates = assay: Dephosphorylation by H226 cell lysates; assay type: in vitro ADME, human; conditions: similar experiment
compound,measurement,setting,value
Nc1ccc(C(=O)Nc2ccc3[nH]c(C(=O)N4C[C@@H](CCl)c5c4cc(OP(=O)(O)O)c4ccccc54)cc3c2)cc1 [compound (Ia)],time to complete dephosphorylation,786-O cell lysate,≤ 8 h
same,time to complete dephosphorylation,H226 cell lysates,≤ 3 h
